Converted amounts (≈) assume the structure as drawn. “And” between values parts separate entries of the source, which are not always exact repeats. Identical values can stand only once. Like-named read-outs stand apart in the source and are kept apart here.
Experiments:
Pseudomonas aeruginosa = details: for MIC PAO 1: 37° C., 24 h, strain PAO1; for MIC GM (geometric mean of the MIC values): six P. aeruginosa strains; for MIC CP 204: strain CP204; for MIC M 2: strain M2; for MIC PA 14: strain PA14; for MIC PAK: strain PAK; for MIC WR 5: strain WR5
Acinetobacter baumannii = assay type: cell-based
Experimental: (§1) Minimal inhibitory concentrations (MICs) are determined using a standard microtiter dilution method, with 3 sets of determinations, in LB (Luria-Bertani) no-salt medium (10 g of tryptone and 5 g of yeast extract per liter). In some cases, Mueller Hinton (MH) medium or Brain Heart Infusion (BHI) medium is used.
(§2) Briefly, cells were grown overnight at 37° C. in LB and diluted in the same medium. Serial dilutions of the peptides are added to the microtiter plates in a volume of 100 μl followed by 10 μl of bacteria to give a final inoculum of 5×10^5 colony-forming units/ml. Plates are incubated at 37° C. for 24 hours and MICs determined as the lowest peptide concentration that inhibited growth. Alternatively, minimal inhibitory concentrations are determined using a standard microtiter dilution method in a Mueller-Hinton (MH) medium. Briefly, cells are grown overnight at 37° C. in MH broth and diluted in the same medium. In some cases, serial dilutions of the peptides are added to the microtiter plates in a volume of 100 μl followed by 10 μl of bacteria to give a final inoculum of 1×10^5 colony-forming units/ml. Plates are incubated at 37° C. for 24 hours and MICs are determined as the lowest peptide concentration that inhibited growth.
The biological activities of these six peptide analogs was determined against 11 clinical isolated of Acinetobacter baumannii (Table 9). Please note that the activities are reported in micromolar rather than microgram/ml. This allows a direct comparison on a molar basis with the effectiveness of molecules of different molecular weights whether peptides disclosed herein or antibiotics which in general are smaller in molecular mass. […] These are the highest antimicrobial activities observed in studies of antimicrobial peptides derived by modifying the peptide sequence of SEQ ID NO:24 (D1). D22 has the best hemolytic activity of the six analogs (D17-D22) and a therapeutic index of […] compared to […] for D1 (Table 9). D22 has no apparent advantage over D1 as determined in these experiments.

[1] = Hemolytic activity against human erythrocytes (HC50 / MHC, microtiter dilution); assay type: cell-based; details: human, 1% human erythrocytes, pH 7.4
Experimental: Hemoglobin release was determined spectrophotometrically at 570 nm. The hemolytic activity was determined as the peptide concentration that caused 50% hemolysis of erythrocytes after 18 h (HC50). […] HC50 was determined by a plot of peptide concentration versus percent lysis.

[2] = RP-HPLC retention as measure of overall peptide hydrophobicity; assay type: physicochemical; details: pH 2, room temperature
Experimental: Crude and purified peptides were analyzed on an Agilent 1100 series liquid chromatograph (Little Falls, Del.). Runs were performed on a Zorbax 300 SB-C8 column (150×2.1 mm I.D.; 5 μm particle size, 300 Å pore size) from Agilent Technologies using linear AB gradient (1% acetonitrile/min) and a flow rate of 0.25 ml/min, where eluant A was 0.2% aqueous TFA, pH 2 and eluant B was 0.2% TFA in acetonitrile.

[3] = RP-HPLC temperature profiling (peptide self-association parameter PA); assay type: physicochemical; details: RP-HPLC temperature profiling 5-80° C., pH 2, relative to control peptide C
Experimental: Temperature profiling analyses were performed on the same column in 3° C. increments, from 5° C. to 80° C., using a linear AB gradient of 0.5% acetonitrile/min, as described previously (30, 53, 92, 93).
Peptide self-association (i.e., the ability to oligomerize/dimerize) in aqueous solution is a very important parameter for antimicrobial activity (53, 92, 93). Without wishing to be bound by any particular theory, the present inventors postulated that monomeric random-coil antimicrobial peptides are best suited to pass through the capsule and cell wall of microorganisms prior to penetration into the cytoplasmic membrane, induction of α-helical structure and disruption of membrane structure to kill target cells (93). Thus, if the self-association ability of a peptide in aqueous media is too strong (e.g., forming stable folded dimers through interaction of their non-polar faces) this could decrease the ability of the peptide to dissociate to monomer, in addition oligomerization of the peptide can prevent it from effectively passing through the capsule and cell wall to reach the membrane. The ability of the peptides in the present study to self-associate was determined by the technique of RP-HPLC temperature profiling at pH 2 (29, 30, 38). The reason pH 2 is used to determine self-association of cationic AMPs is that highly positively charged peptides are frequently not eluted from reversed-phase columns at pH 7 due to non-specific binding to negatively charged silanols on the column matrix. This is not a problem at pH 2 since the silanols are protonated (i.e., neutral) and non-specific electrostatic interactions are eliminated. At pH 2, the interactions between the peptide and the reversed-phase matrix involve ideal retention behavior, i.e., only hydrophobic interactions between the preferred binding domain (nonpolar face) of the amphipathic molecule and the hydrophobic surface of the column matrix are present (39). […] Control peptide C is a monomeric random coil peptide in both aqueous and hydrophobic media; thus, its linear decrease in peptide retention behavior with increasing temperature within the range of 5° C. to 80° C. represents only the general effects of temperature due to greater solute diffusivity and enhanced mass transfer between the stationary and mobile phase at higher temperatures (55). To allow for these general temperature effects, the data for the control peptide was subtracted from each temperature profile as shown in FIG. 2B. Thus, the peptide self-association parameter, PA, represents the maximum change in peptide retention time relative to the random coil peptide C. Note that the higher the PA value, the greater the self-association.

[4] = test system: Methicillin Resistant Staphylococcus aureus (MRSA) and Staphylococcus aureus; assay type: cell-based
Experimental: as §1, §2
Identification of Antimicrobial Peptides for Gram-positive Bacteria. In a manner similar to testing against gram-negative bacteria, experiments were carried out to screen the 14 peptides used to identify antimicrobial peptides with significant activity against A. baumanii shown above against 20 different clinical isolates of Methicillin Resistant Staphylococcus aureus (MRSA) and Staphylococcus aureus.

Compound | MIC PAO 1 (Pseudomonas aeruginosa; Brain Heart Infusion medium) [mg/L] | MIC GM (geometric mean of the MIC values) (Pseudomonas aeruginosa; Brain Heart Infusion medium) [mg/L] | MIC CP 204 (Pseudomonas aeruginosa; Brain Heart Infusion medium) [mg/L] | MIC M 2 (Pseudomonas aeruginosa; Brain Heart Infusion medium) [mg/L] | MIC PA 14 (Pseudomonas aeruginosa; Brain Heart Infusion medium) [mg/L] | MIC PAK (Pseudomonas aeruginosa; Brain Heart Infusion medium) [mg/L] | MIC WR 5 (Pseudomonas aeruginosa; Brain Heart Infusion medium) [mg/L] | MIC PAO 1 (Pseudomonas aeruginosa; Mueller Hinton medium) [mg/L] | MIC GM (geometric mean of the MIC values) (Pseudomonas aeruginosa; Mueller Hinton medium) [mg/L] | MIC CP 204 (Pseudomonas aeruginosa; Mueller Hinton medium) [mg/L] | MIC M 2 (Pseudomonas aeruginosa; Mueller Hinton medium) [mg/L] | MIC PA 14 (Pseudomonas aeruginosa; Mueller Hinton medium) [mg/L] | MIC PAK (Pseudomonas aeruginosa; Mueller Hinton medium) [mg/L] | MIC WR 5 (Pseudomonas aeruginosa; Mueller Hinton medium) [mg/L] | MIC GM (geometric mean) (Acinetobacter baumannii) [µM] | MIC (Acinetobacter baumannii; 24 h) [µM] | HC50 at 18 h [1] | Hydrophobicity (retention time in RP-HPLC) [2] [min] | PA (dimerization / self-association parameter) [3] | MIC GM (geometric mean) [4] [µM]
CC[C@@H](C)[C@@H](NC(=O)[C@@H](C)NC(=O)[C@@H](CO)NC(=O)[C@@H](CC(C)C)NC(=O)[C@@H](CC(C)C)NC(=O)[C@H](NC(=O)[C@@H](CCCCN)NC(=O)[C@@H](CC(C)C)NC(=O)[C@@H](C)NC(=O)[C@@H](CCCCN)NC(=O)[C@@H](CCCCN)NC(=O)[C@@H](CCCCN)NC(=O)[C@@H](C)NC(=O)[C@@H](CCCCN)NC(=O)[C@@H](CO)NC(=O)[C@@H](Cc1ccccc1)NC(=O)[C@H](NC(=O)[C@@H](CO)NC(=O)[C@@H](CC(C)C)NC(=O)[C@@H](Cc1ccccc1)NC(=O)[C@@H](CO)NC(=O)[C@@H](CO)NC(=O)[C@@H](Cc1c[nH]c2ccccc12)NC(=O)[C@@H](CO)NC(C)=O)[C@H](C)O)[C@H](C)O)C(=O)N[C@H](CO)C(=O)N[C@H](CO)C(N)=O [Peptide D17, Ac-SWSSFLSTFSKAKKKALKTLLSAISS-amide] | 31.3 (≈ 11 µM) | 35.1 | 62.5 (≈ 21.9 µM) | 31.3 (≈ 11 µM) | 15.6 (≈ 5.46 µM) | 31.3 (≈ 11 µM) | 62.5 (≈ 21.9 µM) | 15.6 (≈ 5.46 µM) | 22.1 | 31.3 (≈ 11 µM) | 31.3 (≈ 11 µM) | 15.6 (≈ 5.46 µM) | 15.6 (≈ 5.46 µM) | 31.3 (≈ 11 µM) | 0.7 (≈ 2 µg/mL) | 0.7 (≈ 2 µg/mL) | 62 µg/mL and 21.7 µM | 98.81 | 7.96 | 19.7 (≈ 56.3 µg/mL)
CC[C@@H](C)[C@@H](NC(=O)[C@@H](C)NC(=O)[C@@H](CCCCN)NC(=O)[C@@H](CC(C)C)NC(=O)[C@@H](CC(C)C)NC(=O)[C@H](NC(=O)[C@@H](CCCCN)NC(=O)[C@@H](CC(C)C)NC(=O)[C@@H](C)NC(=O)[C@@H](CCCCN)NC(=O)[C@@H](CCCCN)NC(=O)[C@@H](CCCCN)NC(=O)[C@@H](C)NC(=O)[C@@H](CCCCN)NC(=O)[C@@H](CO)NC(=O)[C@@H](Cc1ccccc1)NC(=O)[C@H](NC(=O)[C@@H](CCCCN)NC(=O)[C@@H](CC(C)C)NC(=O)[C@@H](Cc1ccccc1)NC(=O)[C@@H](CO)NC(=O)[C@@H](CCCCN)NC(=O)[C@@H](Cc1c[nH]c2ccccc12)NC(=O)[C@@H](CO)NC(C)=O)[C@H](C)O)[C@H](C)O)C(=O)N[C@H](CO)C(=O)N[C@H](CCCCN)C(N)=O [Peptide D21, Ac-SWKSFLKTFSKAKKKALKTLLKAISK-amide] | 15.6 (≈ 5.16 µM) | 6.2 | 15.6 (≈ 5.16 µM) | 3.9 (≈ 1.29 µM) | 3.9 (≈ 1.29 µM) | 3.9 (≈ 1.29 µM) | 3.9 (≈ 1.29 µM) | 7.8 (≈ 2.58 µM) | 6.2 | 15.6 (≈ 5.16 µM) | 15.6 (≈ 5.16 µM) | 0.5 (≈ 0.165 µM) | 3.9 (≈ 1.29 µM) | 15.6 (≈ 5.16 µM) | 1.1 (≈ 3.33 µg/mL) |  | 88.5 µg/mL and 29.3 µM | 93.77 | 6.00 | 7.3 (≈ 22.1 µg/mL)
CC[C@@H](C)[C@@H](NC(=O)[C@@H](C)NC(=O)[C@@H](CO)NC(=O)[C@@H](CC(C)C)NC(=O)[C@@H](CC(C)C)NC(=O)[C@H](NC(=O)[C@@H](CCCCN)NC(=O)[C@@H](CC(C)C)NC(=O)[C@@H](C)NC(=O)[C@@H](CCCCN)NC(=O)[C@@H](CCCCN)NC(=O)[C@@H](CCCCN)NC(=O)[C@@H](C)NC(=O)[C@@H](CCCCN)NC(=O)[C@@H](CO)NC(=O)[C@@H](Cc1ccccc1)NC(=O)[C@H](NC(=O)[C@@H](CCCCN)NC(=O)[C@@H](CC(C)C)NC(=O)[C@@H](Cc1ccccc1)NC(=O)[C@@H](CO)NC(=O)[C@@H](CO)NC(=O)[C@@H](Cc1c[nH]c2ccccc12)NC(=O)[C@@H](CO)NC(C)=O)[C@H](C)O)[C@H](C)O)C(=O)N[C@H](CO)C(=O)N[C@H](CO)C(N)=O [Peptide D18, Ac-SWSSFLKTFSKAKKKALKTLLSAISS-amide] | 10.4 (≈ 3.59 µM) | 14.7 | 41.7 (≈ 14.4 µM) | 10.4 (≈ 3.59 µM) | 10.4 (≈ 3.59 µM) | 10.4 (≈ 3.59 µM) | 20.8 (≈ 7.17 µM) | 7.8 (≈ 2.69 µM) | 9.8 | 15.6 (≈ 5.38 µM) | 7.8 (≈ 2.69 µM) | 7.8 (≈ 2.69 µM) | 7.8 (≈ 2.69 µM) | 15.6 (≈ 5.38 µM) | 0.9 (≈ 2.61 µg/mL) |  | 55 µg/mL and 19 µM | 97.87 | 7.21 | 17.1 (≈ 49.6 µg/mL)
